This note sets out measurements from PubChem BioAssay (NCI).

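In this assay, cells in 96-well plates receive the compound at five concentrations for 48 hours. Endpoints are linearly interpolated between the surrounding concentrations. GI50 = concentration required for 50% inhibition of growth. At the TGI there is no net growth.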

Test systems include ACHN renal; CCRF-CEM leukemia; IGROV1 ovarian; MALME-3M melanoma; OVCAR-5 ovarian; RXF 393 renal; SK-MEL-2 melanoma; SK-MEL-28 melanoma; SNB-75 CNS; SR leukemia.
Common to all, as to experiment: NCI anticancer screen, dose series, 48 h

On to `O=[N+]([O-])c1ccc2[nH]cc(-c3c4ccsc4cc4[nH]c5ccc([N+](=O)[O-])cc5c34)c2c1`, for which the GI50 with ACHN renal is 1.52 µM; in the assay with CCRF-CEM leukemia, 1.05 µM; in the assay on IGROV1 ovarian it was 1.65 µM; in the assay on MALME-3M melanoma, 0.898 µM; with OVCAR-5 ovarian, 1.29 µM; in the assay with RXF 393 renal, 0.592 µM. Further, the GI50 in the assay on SK-MEL-2 melanoma is 0.861 µM; in the assay on SK-MEL-28 melanoma, 1.38 µM; in the assay with SNB-75 CNS, 0.618 µM; in the assay on SR leukemia, 0.419 µM. Besides, the TGI was found to be 14.9 µM in the assay with ACHN renal; 23.3 µM with CCRF-CEM leukemia; 8.52 µM in the assay on IGROV1 ovarian; 9.44 µM with MALME-3M melanoma; 7.8 µM with OVCAR-5 ovarian; 1.85 µM with RXF 393 renal. The TGI in the assay on SK-MEL-2 melanoma was found to be 4.18 µM; in the assay on SK-MEL-28 melanoma, 6.44 µM; in the assay on SNB-75 CNS, 3.03 µM; in the assay on SR leukemia it was 33.3 µM.

As to `CC1=CSC2=NC(c3ccc(Cl)c(Cl)c3)=CC(c3ccc(Cl)cc3)N12` (stereo not given), the GI50 in the assay with ACHN renal, in the assay with CCRF-CEM leukemia, with IGROV1 ovarian, in the assay with MALME-3M melanoma, in the assay with OVCAR-5 ovarian and with RXF 393 renal was more than 100 µM throughout. For the same compound, the GI50 with SK-MEL-2 melanoma was more than 100 µM; in the assay with SK-MEL-28 melanoma, more than 100 µM; in the assay with SNB-75 CNS, more than 95.3 µM; in the assay with SR leukemia, more than 61.3 µM. Besides, the TGI with ACHN renal, in the assay on CCRF-CEM leukemia, with IGROV1 ovarian, in the assay on MALME-3M melanoma, with OVCAR-5 ovarian and in the assay on RXF 393 renal was more than 100 µM each time. For the same compound, the TGI with SK-MEL-2 melanoma, with SK-MEL-28 melanoma, in the assay on SNB-75 CNS and in the assay on SR leukemia was more than 100 µM throughout.

For the compound `COc1ccc2c(c1)C(=O)CC(N)C2` (stereo not given), the TGI in the assay with ACHN renal, in the assay on CCRF-CEM leukemia, in the assay with IGROV1 ovarian, in the assay on MALME-3M melanoma, with OVCAR-5 ovarian and in the assay with RXF 393 renal was more than 100 µM each time. Moreover, the TGI with SK-MEL-2 melanoma, in the assay with SK-MEL-28 melanoma, in the assay with SNB-75 CNS and in the assay with SR leukemia was more than 100 µM each time.

On to `COc1cc(OC2OC(C)C(O)C(O)C2O)cc2oc(-c3ccc(O)cc3)c(CC=C(C)C)c(=O)c12` (stereo not given), for which the GI50 was 22 µM in the assay with ACHN renal; 5.97 µM with CCRF-CEM leukemia; 12.9 µM in the assay with IGROV1 ovarian; 15.5 µM with MALME-3M melanoma; 31.4 µM in the assay with OVCAR-5 ovarian; 20.3 µM with RXF 393 renal. The GI50 in the assay on SK-MEL-2 melanoma was 35.9 µM; in the assay with SK-MEL-28 melanoma, 23.4 µM; in the assay on SNB-75 CNS it was 1.69 µM; with SR leukemia, 4.08 µM. Moreover, the TGI with ACHN renal amounted to 59.8 µM; with CCRF-CEM leukemia it was 31.8 µM; in the assay with IGROV1 ovarian, 51.9 µM; in the assay on MALME-3M melanoma it was 55.5 µM; with OVCAR-5 ovarian it was 69.2 µM; in the assay with RXF 393 renal it was 64.6 µM. Also, the TGI in the assay on SK-MEL-2 melanoma was more than 100 µM; in the assay on SK-MEL-28 melanoma, 59.6 µM; in the assay on SNB-75 CNS, 17.5 µM; with SR leukemia, 22.5 µM.

On to `CCN(CC)CCC1CC/C(=C\c2ccc(OC)cc2)C1=O` (stereo not given), for which the TGI with ACHN renal, in the assay on CCRF-CEM leukemia, in the assay on IGROV1 ovarian, in the assay on MALME-3M melanoma, with OVCAR-5 ovarian and in the assay on RXF 393 renal was more than 100 µM throughout. Moreover, the TGI in the assay on SK-MEL-2 melanoma, in the assay with SK-MEL-28 melanoma, in the assay with SNB-75 CNS and in the assay with SR leukemia was more than 100 µM each time.
